What was measured:
humanized OX1 receptor = molecular target: T1, humanized OX1 receptor (Homo sapiens, UniProt O43613); assay: Antagonistic effect on humanized OX1 receptor, calcium flux by fluorescence detection in CHO cells; assay type: cell-based
T1 construct: expressed in transfected cells; host or cells: CHO (Chinese hamster ovary) cells
T1 sequence (O43613 1-425): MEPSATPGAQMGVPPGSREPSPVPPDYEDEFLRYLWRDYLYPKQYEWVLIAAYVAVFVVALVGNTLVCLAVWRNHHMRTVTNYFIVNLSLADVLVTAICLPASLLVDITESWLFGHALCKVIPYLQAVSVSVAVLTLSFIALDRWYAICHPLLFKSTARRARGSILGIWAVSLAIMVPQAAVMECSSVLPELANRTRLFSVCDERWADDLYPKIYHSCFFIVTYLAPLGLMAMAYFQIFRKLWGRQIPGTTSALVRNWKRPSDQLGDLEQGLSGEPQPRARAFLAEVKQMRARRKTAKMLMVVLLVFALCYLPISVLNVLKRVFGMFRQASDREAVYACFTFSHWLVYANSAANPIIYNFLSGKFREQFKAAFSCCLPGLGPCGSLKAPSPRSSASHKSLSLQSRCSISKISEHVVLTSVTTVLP
Method: The capability of the compounds provided herein to antagonize humanized OX1 receptor expressed in Chinese hamster ovary (CHO) cells was evaluated by the influence of the compounds disclosed herein on calcium flux in cells induced by agonist detected by a method of fluorescence detection. The cells were suspended in DMEM culture medium (invitrogen), and then added to a microplate with an average density of 2×10^4 cells/well. The Hank's balanced salt solution (pH 7.4) containing fluorescent probes (Fluo4 NW, Invitrogen), probenecid (invitrogen), 20 mM hydroxyethyl piperazine acetic sulfuric acid (invitrogen) was added to the above microplate, and then incubated together with the cells at 37° C. for 60 min, further incubated at 22° C. for 15 min. The microplate was placed in a microplate reader (CellLux, PerkinElmer), and to which was added the test compound or reference antagonist or Hank's balanced salt solution, 5 min later, 3 nM of orexin A or Hank's balanced salt solution (as a blank contrast) was added. […] The experimental results were expressed as an inhibition percentage relative to a control group (the group with 3 nM of orexin A).
The standard reference antagonist is SB334867, and IC50 values were calculated by the dose-effect curve obtained from a series of concentrations of the experimental test.

humanized OX2 receptor = molecular target: T2, humanized OX2 receptor (Homo sapiens, UniProt O43614); assay: Antagonistic effect on humanized OX2 receptor, calcium flux by fluorescence detection in HEK-293 cells; assay type: cell-based; conditions: HEK-293 cells, calcium flux induced by 10 nM orexin B; read-out: OX2 IC50
T2 construct: expressed in transfected cells; host or cells: HEK-293 cells
T2 sequence (O43614 1-444): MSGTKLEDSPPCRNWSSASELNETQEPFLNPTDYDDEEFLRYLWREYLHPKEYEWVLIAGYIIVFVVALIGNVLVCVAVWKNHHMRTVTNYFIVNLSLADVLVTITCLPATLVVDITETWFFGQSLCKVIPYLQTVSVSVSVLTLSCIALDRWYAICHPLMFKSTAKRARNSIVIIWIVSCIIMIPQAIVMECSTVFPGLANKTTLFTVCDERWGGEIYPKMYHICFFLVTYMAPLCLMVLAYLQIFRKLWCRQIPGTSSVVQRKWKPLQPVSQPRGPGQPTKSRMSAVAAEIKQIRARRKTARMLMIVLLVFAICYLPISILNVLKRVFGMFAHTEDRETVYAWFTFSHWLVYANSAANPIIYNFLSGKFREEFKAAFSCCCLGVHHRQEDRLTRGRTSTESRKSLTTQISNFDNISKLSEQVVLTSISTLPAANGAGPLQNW
Method: The capability of the compounds provided herein to antagonize humanized OX2 receptors expressed in HEK-293 cells was evaluated by the influence of the compounds disclosed herein on calcium flux in cells induced by agonist detected by a method of fluorescence detection. The cells were suspended in DMEM culture medium (invitrogen), and then added to a microplate with an average density of 3×10^4 cells/well. The Hank's balanced salt solution (pH 7.4) containing fluorescent probes (Fluo4 NW, Invitrogen), probenecid (invitrogen), 20 mM […] (invitrogen) was added to the above microplate, and then incubated together with the cells at 37° C. for 60 min, further incubated at 22° C. for 15 min. The microplate was placed in a microplate reader (CellLux, PerkinElmer), and to which was added the test compound or reference antagonist or Hank's balanced salt solution, 5 min later, 10 nM of orexin B or Hank's balanced salt solution (as a blank contrast) was added. […] The experimental results were expressed as an inhibition percentage relative to a control group (the group with 10 nM of orexin B).
The standard reference antagonist is JNJ10397049, and IC50 values were calculated by the dose-effect curve obtained from a series of concentrations of the experimental test.

## Cc1ccc(-n2nccn2)c(C(=O)N2CC3CN(c4nc5cc(Cl)ccc5o4)CC3C2)c1 (centres unmarked) [Example 1, (5-(5-chlorobenzo[d]oxazol-2-yl)hexahydropyrrolo[3,4-c]pyrrol-2(1H)-yl)(5-methyl-2-(2H-1,2,3-triazol-2-yl)phenyl)methanone]
Humanized OX1 receptor
  IC50: 604 nM
Humanized OX2 receptor
  IC50: 308 nM

— patent US10370380B2, “Octahydropyrrolo[3,4-c]pyrrole derivatives and uses thereof” (Sunshine Lake Pharma Co., Ltd., priority 2015, dated 2019)
